Results on four molecules are retold here after patent US9636335B2, “Heteroaryl compounds as 5-HT4 receptor ligands” (Suven Life Sciences Ltd, priority 2011, dated 2017).

Series [1] concerns Male Wister rats. Kind of series: Object recognition task model. The format is in vivo. Conditions: p.o., rat. The procedure:
(§1) The cognition enhancing properties of compounds of this invention were estimated by using this model.
Male Wister rats (230-280 grams) were used as experimental animals. Four animals were housed in each cage. […] Also the rats were habituated to individual arenas for 1 hour in the absence of any objects.
One group of 12 rats received vehicle (1 mL/Kg) orally and another set of animals received compound of the formula (I) either orally or i.p., before one hour of the familiar (T1) and choice trial (T2).
The experiment was carried out in a 50×50×50 cm open field made up of acrylic. In the familiarization phase, (T1), the rats were placed individually in the open field for 3 minutes, in which two identical objects (plastic bottles, 12.5 cm height×5.5 cm diameter) covered in yellow masking tape alone (a1 and a2) were positioned in two adjacent corners, 10 cms from the walls. After 24 hours of the (T1) trial for long-term memory test, the same rats were placed in the same arena as they were placed in T1 trial. Choice phase (T2) rats were allowed to explore the open field for 3 minutes in presence of one familiar object (a3) and one novel object (b) (Amber color glass bottle, 12 cm high and 5 cm in diameter). Familiar objects presented similar textures, colors and sizes. During the T1 and T2 trial, explorations of each object (defined as sniffing, licking, chewing or having moving vibrissae whilst directing the nose towards the object at a distance of less than 1 cm) were recorded separately by stopwatch. […] T1 is the total time spent exploring the familiar objects (a1+a2). T2 is the total time spent exploring the familiar object and novel object (a3+b).

The nature of series [2]: Rodent pharmacokinetic study. Conditions: plasma. In kind it is in vivo, Male Wister rats. The procedure: Three to five animals were housed in each cage. […] Animals were fasted over night before oral dosing (p.o) and food pellets were allowed 2 hours post dosing, whereas intravenous dosing food and water were provided as ad libitum. Three rats were dosed with compounds of formula (I) (10 mg/kg) orally and intravenously (05 mg/kg).
At each time point blood was collected through jugular vein and immediately replenish with an equivalent volume of normal saline from freely moving rats. Collected blood was transferred into a labeled eppendr off containing 10 μL of heparin as anticoagulant. Typically blood samples were collected as following time points: Pre dose, 0.08 (only i.v.), 0.25, 0.5, 1, 2, 4, 6, 8, and 24 hours post dose (n=3). Blood was centrifuged at 4000 rpm for 10 minutes. Plasma was prepared and stored frozen at −20° C. until analysis.
Pharmacokinetic parameters Cmax, Tmax, AUCt, T1/2 and Bioavailability were calculated by non-compartmental model using standard non-compartmental model by using WinNonLin 5.0.1 or Phoenix WinNonlin 6.2 version Software package.

The nature of series [3]: Rodent brain penetration study. Conditions: male, Wistar, rat, brain homogenate and plasma, po, 10 mg/kg.
Procedure: Three animals were housed in each cage. Animals were given water and food ad libitum throughout the experiment, and maintained on a 12 hours light/dark cycle.
Brain penetration was determined in discrete manner in rats. […] After acclimatization the rats were grouped according to the weight in each group, 3 animals were kept in individual cage and allowed free access to food and water. At each time point (0.50, 1, and 2 hours) n=3 animals were used.
The compounds of formula (I) was suitably preformulated and administered orally at (free base equivalent) 10 mg/kg. Blood samples were removed via, cardiac puncture by using isoflurane anesthesia the animals were sacrificed to collect brain tissue. […] The concentrations of the NCE compound in plasma and Brain were determined using LC-MS/MS method.
Extent of brain-plasma ratio was calculated (Cb/Cp).
Series [4] addresses recombinant human 5-HT4 receptor (Homo sapiens (Human), UniProt Q13639). The experiment in a line: Determination of EC50 values for 5-HT4 receptor (CHO cells, pCRE-Luc reporter). Conditions: CHO cells expressing human 5-HT4 receptor, luciferase activity, 4 hours incubation. The format is cell-based. The procedure: A stable CHO cell line expressing recombinant human 5-HT4 receptor and pCRE-Luc reporter system was used for cell-based assay. The assay offers a non-radioactive based approach to determine binding of a compound to GPCRs. In this specific assay, the level of intracellular cyclic AMP which is modulated by activation or inhibition of the receptor is measured. The recombinant cells harbor luciferase reporter gene under the control of cAMP response element.
The above cells were grown in 96 well clear bottom white plates in Hams F12 medium containing 10% fetal bovine serum (FBS). Prior to the addition of compounds or standard agonist, cells were serum starved overnight. Increasing concentrations of test compounds were added in OptiMEM medium to the cells. The incubation was continued at 37° C. in CO2 incubator for 4 hours. Medium was removed and cells were washed with phosphate buffered saline. The cells were lysed and luciferase activity was measured in a Luminometer. Luminescence units were plotted against the compound concentrations using Graphpad software.

The subject of series [5] is rats. Kind of series: Radial arm maze, reversal of scopolamine induced amnesia. In kind it is in vivo. The note with it: p.o., rat.
Source text: as §1

The mark [6] stands for this setting: Wistar/Male rat, 5 mg/kg, intravenous (bolus).
The mark [7] stands for this setting: Wistar/Male rat, 10 mg/kg oral vs 5 mg/kg intravenous.
Where [8] appears, read: Wistar/Male rat, 10 mg/kg, oral (gavage).
The mark [9] stands for this setting: male, Wistar, rat, po, 10 mg/kg.

By AUC(0-t) is commonly meant the area under the concentration-time curve up to a stated or last time point. Read a high AUC(0-t) as high exposure. The Cmax is the highest concentration seen after dosing. Broadly, the Tmax is the time at which the peak concentration occurs. As a reminder, the half-life is how long it takes for the measured level to halve. Low readings indicate rapid decline, high ones slow decline. As usually defined, the bioavailability is the share of a dose that reaches the circulation, judged against a reference dose that is usually intravenous. High values mean much systemic uptake, low ones little systemic uptake. For orientation: Kp means tissue or fluid exposure divided by exposure in the circulation. What is called EC50 is the concentration giving half of the maximal effect.

Chain of recombinant human 5-HT4 receptor (Q13639 whole entry): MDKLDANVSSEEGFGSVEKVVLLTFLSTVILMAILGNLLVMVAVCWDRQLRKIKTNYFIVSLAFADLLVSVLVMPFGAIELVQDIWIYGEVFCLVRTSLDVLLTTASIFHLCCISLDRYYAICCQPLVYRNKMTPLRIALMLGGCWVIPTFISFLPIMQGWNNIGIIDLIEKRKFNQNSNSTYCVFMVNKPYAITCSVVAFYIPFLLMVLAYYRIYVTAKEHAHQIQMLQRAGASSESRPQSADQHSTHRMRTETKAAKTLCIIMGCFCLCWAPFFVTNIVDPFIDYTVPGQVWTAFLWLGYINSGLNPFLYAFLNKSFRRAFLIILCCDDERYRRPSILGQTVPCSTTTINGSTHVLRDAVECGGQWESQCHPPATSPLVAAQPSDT

For the molecule `COCCN1CCC(c2nnc(-c3cc(Cl)c(N)c4c3OCCC4)o2)CC1` [Example 8, 6-Chloro-8-{5-[1-(2-methoxy-ethyl)-piperidin-4-yl]-[1,3,4]oxadiazol-2-yl}-chroman-5-ylamine], in series [1] (3 mg/kg), the “Exploration time mean ± S.E.M, Familiar object” value came to 10.45 ± 1.162 s; the “Exploration time mean ± S.E.M, Novel object” value worked out at 17.59 ± 2.95 s; the Inference entry is listed as “Active”. In series [2] (setting [6]), the AUC(0-t) was 1320 ± 527 ng·h/mL, the concentration peaked (Cmax) at 1280 ± 239 ng/mL, the time to peak (Tmax) worked out at 4.8 min and the half-life was 61.8 ± 8.4 min. Besides, the bioavailability in series [2] (setting [7]) came out at 72 ± 22%. In addition, in series [2] (setting [8]), the AUC(0-t) worked out at 1760 ± 89 ng·h/mL, the Cmax was 918 ± 46 ng/mL, the time to peak (Tmax) turned out to be 19.8 ± 8.4 min and the half-life was 60.6 ± 4.8 min. The Kp in series [3] stood at 0.56 ± 0.08. Besides, the EC50 in series [4] was determined as 0.0156 µM.

For the molecule `Nc1c(Cl)cc(-c2nnc(C3CCN(C4CCC4)CC3)o2)c2c1CCCO2` [Example 14, 6-Chloro-8-[5-(1-cyclobutyl-piperidin-4-yl)-[1,3,4]oxadiazol-2-yl]-chroman-5-ylamine], in series [1] (1 mg/kg), the “Exploration time mean ± S.E.M, Familiar object” value was found to be 5.06 ± 1.32 s; the “Exploration time mean ± S.E.M, Novel object” value is 12.68 ± 1.14 s; the Inference entry is given as “Active”. Further, in series [2] (setting [6]), the AUC(0-t) amounted to 773 ± 45 ng·h/mL, the Cmax amounted to 783 ± 124 ng/mL, the Tmax is 4.8 min and the half-life was 73.2 ± 15.6 min. In series [2] (setting [7]), the bioavailability is 42 ± 10%. Besides, in series [2] (setting [8]), the AUC(0-t) is 645 ± 136 ng·h/mL, the Cmax came to 513 ± 125 ng/mL, the Tmax turned out to be 15 min and the half-life is 57.6 ± 6.6 min. Further, the Kp in series [3] came to 2.24 ± 0.09. Also, in series [4], the EC50 turned out to be 0.0013 µM. In addition, the “Reversal of Scopolamine Induced amnesia - Effective dose range” value in series [5] is 1-10 mg/kg, p.o.

Take `Nc1c(Cl)cc(-c2nnc(CCCN3CCCCC3)o2)c2c1CCCO2.O=C(O)C(O)C(O)C(=O)O` [Example 20, 6-Chloro-8-[5-(3-piperidin-1-yl-propyl)-[1,3,4]oxadiazol-2-yl]-chroman-5-ylamine tartarate salt]: in series [1] (3 mg/kg), the “Exploration time mean ± S.E.M, Familiar object” value was 4.69 ± 0.79 s; the “Exploration time mean ± S.E.M, Novel object” value was 11.04 ± 1.33 s; the Inference result was “Active”. In addition, in series [2] (setting [6]), the AUC(0-t) turned out to be 867 ± 173 ng·h/mL, the Cmax was 976 ± 305 ng/mL, the Tmax was 4.8 min and the half-life is 48 ± 3.6 min. This molecule also returned a bioavailability in series [2] (setting [7]) of 46 ± 9%. Besides, in series [2] (setting [8]), the AUC(0-t) was found to be 790 ± 153 ng·h/mL, the Cmax worked out at 602 ± 35 ng/mL, the Tmax was found to be 15 min and the half-life is 61.8 ± 1.2 min. This molecule came in with a Kp in series [3] of 0.5 ± 0.07. Besides, in series [4], the EC50 was found to be 0.104 µM.

In the case of `Nc1c(Cl)cc(-c2nnc(CC3CCN(C4CCCC4)CC3)o2)c2c1CCCO2.O=C(O)C(=O)O` [Example 21, 6-Chloro-8-[5-(1-cyclopentyl-piperidin-4-ylmethyl)-[1,3,4]oxadiazol-2-yl]-chroman-5-ylamine oxalate salt], in series [2] (male, Wistar, rat, iv, 5 mg/kg), the AUC(0-t) was 876 ± 65 ng·h/mL, the Cmax was determined as 750 ± 14 ng/mL, the Tmax turned out to be 4.8 min and the half-life is 107 ± 25.8 min. Moreover, in series [2] (setting [9]), the AUC(0-t) came to 1490 ± 72 ng·h/mL, the Cmax came to 553 ± 53 ng/mL, the Tmax worked out at 25.2 ± 7.2 min and the bioavailability worked out at 85 ± 4%. For the same molecule, the half-life in series [2] (setting [9]) is 94.2 ± 6.6 min. The same molecule had a Kp in series [3] of 0.62 ± 0.05. In addition, in series [4], the EC50 is 0.0712 µM.
